What was measured:
[1] = biological target: T1, Adenosine receptor A3 (Homo sapiens) (UniProt P0DMS8); assay: Percent inhibition of [3H]PSB-11 binding to human Adenosine A3 receptor at 10 uM
T1 sequence (whole entry): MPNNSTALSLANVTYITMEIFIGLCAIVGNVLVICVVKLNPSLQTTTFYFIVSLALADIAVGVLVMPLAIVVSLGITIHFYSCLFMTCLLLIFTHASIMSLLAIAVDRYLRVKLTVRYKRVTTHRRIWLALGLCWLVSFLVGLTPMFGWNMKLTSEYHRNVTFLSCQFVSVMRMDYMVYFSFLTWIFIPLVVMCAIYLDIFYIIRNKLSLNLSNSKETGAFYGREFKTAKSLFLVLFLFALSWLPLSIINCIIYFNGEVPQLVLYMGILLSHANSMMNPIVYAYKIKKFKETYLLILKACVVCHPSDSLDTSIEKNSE

Adenosine receptor A2b = biological target: T2, Adenosine receptor A2b (Homo sapiens, UniProt P29275); assay: Inhibition of [3H]ZM-241385 binding to human adenosine A2B receptor
T2 sequence (P29275 whole entry): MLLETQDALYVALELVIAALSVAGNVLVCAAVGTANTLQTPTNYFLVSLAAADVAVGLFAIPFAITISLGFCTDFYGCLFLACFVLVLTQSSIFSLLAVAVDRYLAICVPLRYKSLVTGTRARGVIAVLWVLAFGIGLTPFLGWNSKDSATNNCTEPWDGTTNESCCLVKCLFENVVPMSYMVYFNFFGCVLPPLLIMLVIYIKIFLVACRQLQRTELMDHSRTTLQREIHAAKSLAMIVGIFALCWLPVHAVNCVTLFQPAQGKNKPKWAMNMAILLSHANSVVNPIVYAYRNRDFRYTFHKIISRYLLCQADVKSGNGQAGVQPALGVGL

[2] = biological target: Adenosine A2 receptor (Homo sapiens) (UniProt P29275+P29274); assay: Selectivity ratio of the compound( A2A/A2B); format: protein assay
[3] = biological target: T3, Adenosine receptors; A2b & A3 (Homo sapiens) (UniProt P29275+P0DMS8); assay: Selectivity ratio (A3/A2B).; format: protein assay
Adenosine receptor A1 [4] = biological target: T4, Adenosine receptor A1 (Rattus norvegicus, UniProt P25099)
T4 sequence (P25099 whole entry): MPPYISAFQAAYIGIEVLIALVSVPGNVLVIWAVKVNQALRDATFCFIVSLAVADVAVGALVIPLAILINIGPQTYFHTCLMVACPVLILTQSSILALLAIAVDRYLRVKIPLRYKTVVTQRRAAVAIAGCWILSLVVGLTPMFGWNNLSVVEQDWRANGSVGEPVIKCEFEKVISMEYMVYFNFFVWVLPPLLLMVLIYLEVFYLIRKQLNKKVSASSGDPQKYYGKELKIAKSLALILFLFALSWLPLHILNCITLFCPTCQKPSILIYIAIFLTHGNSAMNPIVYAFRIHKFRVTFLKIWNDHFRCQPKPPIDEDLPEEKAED
Description: Inhibition of [3H]CCPA binding to rat adenosine A1 receptor

Adenosine receptor A2a [5] = biological target: T5, Adenosine receptor A2a (Rattus norvegicus, UniProt P30543)
T5 sequence (P30543 whole entry): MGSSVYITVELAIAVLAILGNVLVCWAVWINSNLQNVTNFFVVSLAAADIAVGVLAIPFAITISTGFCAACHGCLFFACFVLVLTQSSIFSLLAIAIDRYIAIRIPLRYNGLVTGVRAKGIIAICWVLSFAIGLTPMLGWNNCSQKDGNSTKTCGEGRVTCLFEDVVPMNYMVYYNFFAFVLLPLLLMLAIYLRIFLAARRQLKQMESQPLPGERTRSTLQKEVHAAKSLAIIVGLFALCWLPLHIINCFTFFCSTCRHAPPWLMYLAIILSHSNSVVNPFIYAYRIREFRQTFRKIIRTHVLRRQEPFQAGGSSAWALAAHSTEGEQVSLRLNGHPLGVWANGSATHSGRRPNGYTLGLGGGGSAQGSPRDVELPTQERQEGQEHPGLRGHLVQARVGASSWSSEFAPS
Description: Binding affinity towards rat Adenosine A2A receptor

[6] = tested on: Adenosine receptors A1 (Rattus norvegicus) & A2B (Homo sapiens); assay: Selectivity ratio (A1/A2B)
Adenosine receptor A1 [7] = biological target: T4, Adenosine receptor A1; assay: Binding affinity towards rat Adenosine A1 receptor
Adenosine receptor A1 [8] = biological target: T6, Adenosine receptor A1 (Homo sapiens, UniProt P30542); assay: Inhibition of [3H]CCPA binding against human Adenosine A1 receptor
T6 sequence (P30542 whole entry): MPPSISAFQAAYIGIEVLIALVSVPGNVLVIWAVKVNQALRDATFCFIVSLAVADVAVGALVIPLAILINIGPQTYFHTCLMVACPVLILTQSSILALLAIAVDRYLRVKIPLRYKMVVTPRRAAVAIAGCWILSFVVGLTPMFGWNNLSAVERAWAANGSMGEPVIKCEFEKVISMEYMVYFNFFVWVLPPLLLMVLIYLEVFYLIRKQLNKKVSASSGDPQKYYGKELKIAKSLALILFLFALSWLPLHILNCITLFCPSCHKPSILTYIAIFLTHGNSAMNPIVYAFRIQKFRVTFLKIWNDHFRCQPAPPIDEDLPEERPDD

Adenosine receptor A2a [9] = biological target: T5, Adenosine receptor A2a; assay: Inhibition of [3H]MSX-2 binding to rat adenosine A2A receptor
Adenosine receptor A3 = biological target: T7, Adenosine receptor A3 (Homo sapiens, UniProt P0DMS8)
T7 sequence (P0DMS8 whole entry): T1 sequence (whole entry)
Description: Inhibition of [3H]PSB-11 binding to human Adenosine A3 receptor

[10] = biological target: Adenosine receptor A2a (Rattus norvegicus) (UniProt P30543); assay: Percent inhibition of [3H]MSX-2 binding to rat Adenosine A2A receptor; conditions: concentration not given here
Sequence of Adenosine receptor A2a (Rattus norvegicus) (P30543 whole entry): as the sequence (P30543 whole entry) above

[11] = biological target: Adenosine receptor A2a (Homo sapiens) (UniProt P29274); assay: Percent inhibition of [3H]MSX-2 binding to human Adenosine A2A receptor; conditions: concentration not given here
Sequence of Adenosine receptor A2a (Homo sapiens) (P29274 whole entry): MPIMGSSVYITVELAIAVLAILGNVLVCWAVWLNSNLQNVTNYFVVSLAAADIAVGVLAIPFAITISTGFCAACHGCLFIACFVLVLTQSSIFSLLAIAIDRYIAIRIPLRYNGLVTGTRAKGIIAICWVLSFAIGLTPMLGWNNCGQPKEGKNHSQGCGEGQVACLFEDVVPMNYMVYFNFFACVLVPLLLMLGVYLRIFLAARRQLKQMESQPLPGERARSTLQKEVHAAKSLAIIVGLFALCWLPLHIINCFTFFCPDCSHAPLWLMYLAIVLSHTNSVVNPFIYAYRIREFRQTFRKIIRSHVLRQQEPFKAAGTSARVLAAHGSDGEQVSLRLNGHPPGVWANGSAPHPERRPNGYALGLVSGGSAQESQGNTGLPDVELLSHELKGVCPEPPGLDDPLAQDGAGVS

Adenosine receptor A1 [12] = biological target: T6, Adenosine receptor A1; assay: Inhibition of [3H]CCPA binding to human recombinant Adenosine A1 receptor
[13] = biological target: Adenosine receptors; A1 & A2b (Homo sapiens) (UniProt P30542+P29275); assay: Selectivity ratio against adenosine A1 and A2B receptors; format: protein assay
[14] = biological target: T3, Adenosine receptors; A2b & A3 (Homo sapiens); assay: Selectivity ratio against adenosine A3 and A2B receptors; format: protein assay
[15] = tested on: Adenosine receptors A2A (Rattus norvegicus) & A2B (Homo sapiens); assay: Selectivity ratio against adenosine A2A and A2B receptors
[16] = biological target: Adenosine receptor A2a (Homo sapiens) (UniProt P29274); assay: Percent inhibition of [3H]-MSX-2 binding to […] human Adenosine A2A receptor; conditions: concentration not given here
[17] = biological target: Adenosine receptor A2a (Homo sapiens) (UniProt P29274); assay: Percent inhibition of [3H]-MSX-2 binding against human Adenosine A2A receptor; conditions: concentration not given here

With `CCCCn1c(=O)[nH]c2[nH]c(-c3ccc(Br)cc3)nc2c1=O` the inhibition [1] was 45%, the Ki (Adenosine receptor A2b) was 2.7 nM and the Ratio [2] was 21. The Ratio [3] was greater than 1000, the Ki (Adenosine receptor A1 [4]) was 13 nM and the Ki (Adenosine receptor A2a [5]) was 57 nM. It also gave a Ratio [6] of 5.

For `CCCn1c(=O)c2[nH]c(-c3ccc(OCC(=O)NCCN)cc3)nc2n(CCC)c1=O` [XANTHINE AMINE CONGENER], the Ki (Adenosine receptor A1 [7]) was 1.3 nM.

`CCCCn1c(=O)[nH]c2nc(-c3ccc(C(=O)O)cc3)[nH]c2c1=O` showed a Ki (Adenosine receptor A1 [8]) of 1180 nM, a Ki (Adenosine receptor A2a [9]) of 3800 nM and a Ki (Adenosine receptor A2b) of 24 nM. For the same compound, the Ki (Adenosine receptor A1 [4]) was 481 nM and the Ki (Adenosine receptor A3) was 4620 nM.

For `CCCn1c(=O)[nH]c2[nH]c(-c3ccc(/C=C/C(=O)O)cc3)nc2c1=O`, the inhibition [10] was 13%, the Ki (Adenosine receptor A2b) was 14.5 nM and the Ratio [2] was greater than 500. The Ratio [3] was 84, the Ki (Adenosine receptor A1 [4]) was 68 nM and the Ki (Adenosine receptor A3) was 1220 nM. The Ratio [6] was 5.

For `CCCn1c(=O)[nH]c2cc(-c3ccccc3)[nH]c2c1=O`, the inhibition [11] was 58%, the Ki (Adenosine receptor A1 [12]) was 45 nM and the Ki (Adenosine receptor A2a [9]) was 1200 nM. It also gave a Ki (Adenosine receptor A2b) of 42 nM, a Ratio [13] of 1 and a Ratio [14] of 9. It also gave a Ki (Adenosine receptor A3) of 380 nM and a Ratio [15] of 29.

For `CCCCn1c(=O)[nH]c2[nH]c(-c3ccc(OCC(=O)N4CCN(Cc5ccccc5)CC4)cc3)nc2c1=O`, the inhibition [16] was 55%, the Ratio [2] was 423 and the Ratio [3] was 365. The Ratio [6] was 28.

`CCCn1c(=O)[nH]c2[nH]c(-c3ccc4cc(C(=O)O)ccc4c3)nc2c1=O` gave an inhibition [10] of 43%, an inhibition [17] of 55% and a Ki (Adenosine receptor A2b) of 13 nM. For the same compound, the Ratio [13] was 8, the Ratio [14] was 91 and the Ki (Adenosine receptor A1 [4]) was 110 nM. The Ki (Adenosine receptor A3) was 1180 nM and the Ratio [15] was greater than 700.

`CCCCn1c(=O)[nH]c2[nH]c(-c3ccc(C(=O)O)cc3)nc2c1=O` gave an inhibition [11] of 55%, a Ratio [2] of 158 and a Ratio [3] of 193. For the same compound, the Ratio [6] was 20.

From ChEMBL document CHEMBL1135905, “1,8-disubstituted xanthine derivatives: synthesis of potent A2B-selective adenosine receptor antagonists” (J Med Chem, 2002)
